Measurements taken from PMC9848300, “Discovery of novel enasidenib analogues targeting inhibition of mutant isocitrate dehydrogenase 2 as antileukaemic agents” (Journal of Enzyme Inhibition and Medicinal Chemistry, 2023).

Legend:
ACHN = experiment: NCI 60 antitumor screening (single dose / five doses); format: cell-based; details: Homo sapiens; ACHN (renal cancer), single dose 10 μM; read-out: Growth inhibition percentage (GI %)
SF-539 = experiment: as above; format: cell-based; details: Homo sapiens; SF-539 (CNS cancer), single dose 10 μM; read-out: Growth inhibition percentage (GI %)
SNB-75 = experiment: as above; format: cell-based; details: Homo sapiens; SNB-75 (CNS cancer), single dose 10 μM; read-out: Growth inhibition percentage (GI %)
HL-60(TB) = experiment: as above; format: cell-based; details: Homo sapiens; HL-60(TB) (leukaemia), single dose 10 μM; read-out: Growth inhibition percentage (GI %)
A498 = experiment: as above; format: cell-based; details: Homo sapiens; A498 (renal cancer), single dose 10 μM; read-out: Growth inhibition percentage (GI %)
UO-31 = experiment: as above; format: cell-based; details: Homo sapiens; UO-31 (renal cancer), single dose 10 μM; read-out: Growth inhibition percentage (GI %)
[1] = tested on: 60 human subpanel cancer cell lines; experiment: NCI 60 antitumor screening, mean over the panel (single dose); format: cell-based; details: mean over 60 cancer cell lines, single dose 10 μM
Outline: (§1)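 The panel mean likewise comes from single-dose (10 μM) NCI 60-line testing, with inhibition expressed as 100 − G%.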

MCF7 = experiment: NCI 60 antitumor screening (single dose); format: cell-based; details: Homo sapiens; MCF7 (breast cancer), single dose 10 μM; read-out: Growth inhibition percentage (GI %)
Outline: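 Percent growth inhibition, calculated as 100 minus percent growth (G%) of treated cells, following a single 10 μM exposure in the NCI 60 human cancer cell screen; triplicate runs.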

SF-268 = experiment: NCI 60 antitumor screening (single dose); format: cell-based; details: Homo sapiens; SF-268 (CNS cancer), single dose 10 μM; read-out: Growth inhibition percentage (GI %)
Outline: as §1

MDA-MB-231/ATCC = experiment: NCI 60 antitumor screening (single dose / five doses); format: cell-based; details: Homo sapiens; MDA-MB-231/ATCC (breast cancer), single dose 10 μM; read-out: Growth inhibition percentage (GI %)
COLO 205 = experiment: as above; format: cell-based; details: Homo sapiens; COLO 205 (colon cancer), single dose 10 μM; read-out: Growth inhibition percentage (GI %)
IGROV1 = experiment: as above; format: cell-based; details: Homo sapiens, IGROV-1; IGROV1 (ovarian cancer), single dose 10 μM; read-out: Growth inhibition percentage (GI %)
786-0 = experiment: as above; format: cell-based; details: Homo sapiens, 786-0, 786-0 (renal cancer), single dose 10 μM; read-out: Growth inhibition percentage (GI %)
UACC-62 = experiment: as above; format: cell-based; details: Homo sapiens; UACC-62 (melanoma), single dose 10 μM; read-out: Growth inhibition percentage (GI %)
SN 12C = experiment: as above; format: cell-based; details: Homo sapiens, SN12C; SN 12C (renal cancer), single dose 10 μM; read-out: Growth inhibition percentage (GI %)
HT29 = experiment: as above; format: cell-based, human; details: Homo sapiens, HT-29; HT29 (colon cancer), single dose 10 μM; read-out: Growth inhibition percentage (GI %)
HCT-116 = experiment: as above; format: cell-based; details: Homo sapiens; HCT-116 (colon cancer), single dose 10 μM; read-out: Growth inhibition percentage (GI %)
MDA-MB-435 = experiment: as above; format: cell-based; details: Homo sapiens; MDA-MB-435 (melanoma), single dose 10 μM; read-out: Growth inhibition percentage (GI %)
HCT-15 = experiment: as above; format: cell-based; details: Homo sapiens; HCT-15 (colon cancer), single dose 10 μM; read-out: Growth inhibition percentage (GI %)
T-47D = experiment: as above; format: cell-based; details: Homo sapiens, T47D; T-47D (breast cancer), single dose 10 μM; read-out: Growth inhibition percentage (GI %)
LOX IMVI = experiment: as above; format: cell-based; details: Homo sapiens; LOX IMVI (melanoma), single dose 10 μM; read-out: Growth inhibition percentage (GI %)
SK-MEL-28 = experiment: as above; format: cell-based; details: Homo sapiens; SK-MEL-28 (melanoma), single dose 10 μM; read-out: Growth inhibition percentage (GI %)
HOP-92 = experiment: as above; format: cell-based; details: Homo sapiens; HOP-92 (non-small cell lung cancer), single dose 10 μM; read-out: Growth inhibition percentage (GI %)
SK-MEL-2 = experiment: as above; format: cell-based; details: Homo sapiens; SK-MEL-2 (melanoma), single dose 10 μM; read-out: Growth inhibition percentage (GI %)
K-562 = experiment: as above; format: cell-based; details: Homo sapiens, K562; K-562 (leukaemia), single dose 10 μM; read-out: Growth inhibition percentage (GI %)
UACC-257 = experiment: as above; format: cell-based; details: Homo sapiens; UACC-257 (melanoma), single dose 10 μM; read-out: Growth inhibition percentage (GI %)
BT-549 = experiment: as above; format: cell-based; details: Homo sapiens; BT-549 (breast cancer), single dose 10 μM; read-out: Growth inhibition percentage (GI %)
DU-145 = experiment: as above; format: cell-based; details: Homo sapiens; DU-145 (prostate cancer), single dose 10 μM; read-out: Growth inhibition percentage (GI %)
RXF 393 = experiment: as above; format: cell-based; details: Homo sapiens; RXF 393 (renal cancer), single dose 10 μM; read-out: Growth inhibition percentage (GI %)

SMILES	inhibition at 10 µM (ACHN) [%]	inhibition at 10 µM (SF-539) [%]	inhibition at 10 µM (SNB-75) [%]	inhibition at 10 µM (HL-60(TB)) [%]	inhibition at 10 µM (A498) [%]	inhibition at 10 µM (UO-31) [%]	Mean GI % [1] [%]	inhibition at 10 µM (MCF7) [%]	inhibition at 10 µM (SF-268) [%]	inhibition at 10 µM (MDA-MB-231/ATCC) [%]	inhibition at 10 µM (COLO 205) [%]	inhibition at 10 µM (IGROV1) [%]	inhibition at 10 µM (786-0) [%]	inhibition at 10 µM (UACC-62) [%]	inhibition at 10 µM (SN 12C) [%]	inhibition at 10 µM (HT29) [%]	inhibition at 10 µM (HCT-116) [%]	inhibition at 10 µM (MDA-MB-435) [%]	inhibition at 10 µM (HCT-15) [%]	inhibition at 10 µM (T-47D) [%]	also measured
Brc1cccc(/C=N/Nc2nc(N/N=C/c3cccc(Br)c3)nc(N3CCCCC3)n2)c1 [compound 7c, 2,4-Bis[(E)-2-[(3-Bromophenyl)methylidene]hydrazin-1-yl]-6-(piperidin-1-yl)-1,3,5-triazine]	-5.5	-6.24	-17.3	7.75	12.2	20.2	2.56	20.2	-5.8	-8.36	-5.18	-0.7	4.36	14.5	-1.41	3.98	13.5	4.57	16.1	12.3	inhibition at 10 µM (LOX IMVI): -5.74%; inhibition at 10 µM (SK-MEL-28): 0.82%; inhibition at 10 µM (HOP-92): -12.8%; inhibition at 10 µM (SK-MEL-2): -2.13%; inhibition at 10 µM (K-562): 11.2%; inhibition at 10 µM (UACC-257): -4.98%; inhibition at 10 µM (BT-549): -13.1%; inhibition at 10 µM (DU-145): -1.2%; inhibition at 10 µM (RXF 393): -16.1%
Clc1cccc(/C=N/Nc2nc(N/N=C/c3cccc(Cl)c3)nc(N3CCCCC3)n2)c1 [compound 7d, 2,4-Bis[(E)-2-[(3-Chlorophenyl)methylidene]hydrazin-1-yl]-6-(piperidin-1-yl)-1,3,5-triazine]	-1.44	-5.25	-2.48	3.01	7.8	23.2	7.03	16.9	8.03	-16.1	-1.88	-4.79	4.76	20.8	7.63	14.4	2.75	9.61	20.2	24	inhibition at 10 µM (LOX IMVI): -4.97%; inhibition at 10 µM (SK-MEL-28): 3.79%; inhibition at 10 µM (HOP-92): -7.89%; inhibition at 10 µM (SK-MEL-2): 13.9%; inhibition at 10 µM (K-562): 17%; inhibition at 10 µM (UACC-257): -11.1%; inhibition at 10 µM (BT-549): 5.13%; inhibition at 10 µM (DU-145): 5.38%; inhibition at 10 µM (RXF 393): 6.56%
Fc1cccc(/C=N/Nc2nc(N/N=C/c3cccc(F)c3)nc(N3CCCCC3)n2)c1 [compound 7e, 2,4-Bis[(E)-2-[(3-Fluorophenyl)methylidene]hydrazin-1-yl]-6-(piperidin-1-yl)-1,3,5-triazine]	8.6	-3.16	-14.6	31.9	15.7	22.1	10.18	26.7	0.36	-0.43	-0.08	9.61	10.5	25.8	5.08	8.7	9.65	8.23	29.2	30.6	inhibition at 10 µM (LOX IMVI): 14.2%; inhibition at 10 µM (SK-MEL-28): 9.32%; inhibition at 10 µM (HOP-92): -16%; inhibition at 10 µM (SK-MEL-2): 0.55%; inhibition at 10 µM (K-562): 38.6%; inhibition at 10 µM (UACC-257): -0.08%; inhibition at 10 µM (BT-549): -5.92%; inhibition at 10 µM (DU-145): 2.92%; inhibition at 10 µM (RXF 393): -12.5%
